The values that follow come from US12240853B2, “Compounds useful in HIV therapy” (GlaxoSmithKline Intellectual Property (No.2) Limited, priority 2019, dated 2025).

Series [1] has as its system HIV pseudotyped virus, M184V. Format: cell-based. As to conditions: U373 cells (CD4, CXCR4 or CCR5), luciferase signal after 3 days.
The nature of series [2]: Example 18 rat PK studies (SC and IM). The class given is in vivo, Wistar Han rats. The settings on record: single SC or IM injection, 20 mg parent/kg. The text has this: Example 18 referenced herein was made in accordance with Synthesis B. A total of seven naïve male Wistar Han rats, 250-275 g, were received from the supplier equipped with a surgically-implanted jugular vein catheter (JVC) to facilitate blood sample collection during the first several days of the study. Following an acclimation period, the animals were assigned to the study based on acceptable health as determined by a staff veterinarian and catheter patency. Six animals were placed into two groups of 3 rats per group. Fasting of the animals before or after dosing was not required.
(§1) On Day 1 each animal in Group 1 received a single intrascapular subcutaneous injection of prepared test article at a target dose level of 20 mg parent/kg and at a dose volume of 0.49 mL/kg. Each animal in Group 2 received a single intramuscular injection of prepared test article into a thigh muscle at a target dose level of 20 mg parent/kg and at a dose volume of 0.49 mL/kg. The animals were manually restrained for dosing and were not sedated. […]
Interim blood samples for PK (Groups 1A and 2A) were collected from the jugular vein catheter or by venipuncture of a jugular vein if the catheter was not patent. […] The PK plasma samples were analyzed every 1-2 weeks by the Testing Facility to determine the concentration of prodrug and parent using an LC-MS/MS Research Grade Assay (RGA-1) with sensitivity to 0.1 ng/mL. […]

Series [3] in a line: Example 18 dog PK studies (SC and IM). As to conditions: beagle dog, single SC or IM injection, 5 mg parent/kg. Format: in vivo, beagle dogs.
Text: Example 18 referenced herein was made in accordance with Synthesis B. Six male beagle dogs (+1 spare) were selected from the Testing Facility's colony of non-naïve animals. The animals were assigned to the study based on acceptable health as determined by a Testing Facility veterinarian. Six animals were selected and placed into two groups of three animals each. Fasting of the animals before or after dosing was not required.
as §1, with “5” for “20”, “parent/kg in 2% P404/2% PEG3350/PBS (dose concentration 97.36 mg/mL prodrug)” for “parent/kg”, “0.1” for “0.49”, “in” for “into”, “hind quarter (quadriceps)” for “thigh muscle”, “sedated. The dose sites were clipped of hair and wiped with alcohol before dosing.” for “sedated.”
The PK plasma samples were analyzed approximately every two weeks by the Testing Facility to determine the concentration of Example 18 (prodrug) and parent using an LC-MS/MS Research Grade Assay (RGA-1) with sensitivity to 0.1 ng/mL. […]

The test system of series [4] is HIV pseudotyped virus (NL4-3 provirus, luciferase reporter), WT. The series is described as follows: PSV (pseudotyped virus) assay, WT. As to conditions: Human immunodeficiency virus 1, NL43, 72 h, read-out: WT IC50.
Description: A pseudotyped virus assay (PSV) was used to assess the potency of the HIV inhibitor.
The PSV assay was performed by using U373 cells stably transformed to express human CD4, the primary receptor for HIV entry and either human CXCR4 or human CCR5 which are the co-receptors required for HIV entry as target cells for infection. […] This dose-range was applied to U373 cells and the pre-made pseudotyped virus added. The amount of luciferase signal produced after 3 days of culture was used to reflect the level of pseudotyped virus infection. An IC50, or the concentration of inhibitor required to reduce PSV infection by 50% from the infection containing no inhibitor was calculated. […] IC50 values were determined from a 10 point dose response curve using 3-4-fold serial dilution for each compound, which spans a concentration range>1000 fold.
These values are plotted against the molar compound concentrations using the standard four parameter logistic equation: y=((Vmax*x^n)/(K^n+x^n))+Y2

Each structure is given as a SMILES string. pIC50: −log10 of the molar value.

Turning to `C#C[C@]1(COC(=O)CCCCCCCCC)O[C@@H](n2cnc3c(N)nc(F)nc32)C[C@@H]1OC(=O)CCCCCCCCC` [Example 18, (2R,3S,5R)-5-(6-amino-2-fluoro-9H-purin-9-yl)-2-((decanoyloxy)methyl)-2-ethynyltetrahydrofuran-3-yl Decanoate], the negative-log IC50 (pIC50) in series [1] is 7.14; in series [4], 8.00. The “Clinical observations and dose site reactions” value in series [2] was “All animals appeared normal at the time of each observation and no dose site reactions were observed”; in series [3], “All animals appeared normal at the time of each observation and no dose site reactions were observed”.

One may read the pIC50 as the negative decadic logarithm of the IC50, by convention in mol/L.
